Assay results: BigSolDB 2.1

Question: Which results are given for `NC(=O)c1nc(F)cnc1O`?
Answer: solubility (mole fraction) (in DMF, 293.15 K): 0.0109; solubility (mole fraction) (in DMF, 298.15 K): 0.0116; solubility (mole fraction) (in DMF, 303.15 K): 0.0128; solubility (mole fraction) (in DMF, 308.15 K): 0.0133; solubility (mole fraction) (in DMF, 313.15 K): 0.0156; solubility (mole fraction) (in DMF, 318.15 K): 0.0183; solubility (mole fraction) (in DMF, 323.15 K): 0.0212; solubility (mole fraction) (in DMF, 328.15 K): 0.0234; solubility (mole fraction) (in DMF, 333.15 K): 0.026; solubility (mole fraction) (in acetone, 293.15 K): 0.00417; solubility (mole fraction) (in acetone, 298.15 K): 0.00458; solubility (mole fraction) (in acetone, 303.15 K): 0.00492; solubility (mole fraction) (in acetone, 308.15 K): 0.00523; solubility (mole fraction) (in acetone, 313.15 K): 0.00585; solubility (mole fraction) (in acetone, 318.15 K): 0.00638; solubility (mole fraction) (in acetone, 323.15 K): 0.00699; solubility (mole fraction) (in acetone, 328.15 K): 0.00772; solubility (mole fraction) (in acetone, 333.15 K): 0.00859; solubility (mole fraction) (in acetonitrile, 293.15 K): 0.00183; solubility (mole fraction) (in acetonitrile, 298.15 K): 0.00188; solubility (mole fraction) (in acetonitrile, 303.15 K): 0.00193; solubility (mole fraction) (in acetonitrile, 308.15 K): 0.00207; solubility (mole fraction) (in acetonitrile, 313.15 K): 0.00226; solubility (mole fraction) (in acetonitrile, 318.15 K): 0.00242; solubility (mole fraction) (in acetonitrile, 323.15 K): 0.00268; solubility (mole fraction) (in acetonitrile, 328.15 K): 0.00285; solubility (mole fraction) (in acetonitrile, 333.15 K): 0.00293; solubility (mole fraction) (in dichloromethane, 293.15 K): 0.00231; solubility (mole fraction) (in dichloromethane, 298.15 K): 0.00271; solubility (mole fraction) (in dichloromethane, 303.15 K): 0.00277; solubility (mole fraction) (in dichloromethane, 308.15 K): 0.00284; solubility (mole fraction) (in dichloromethane, 313.15 K): 0.00328; solubility (mole fraction) (in dichloromethane, 318.15 K): 0.00359; solubility (mole fraction) (in dichloromethane, 323.15 K): 0.00398; solubility (mole fraction) (in dichloromethane, 328.15 K): 0.00462; solubility (mole fraction) (in dichloromethane, 333.15 K): 0.00514; solubility (mole fraction) (in ethanol, 293.15 K): 0.00206; solubility (mole fraction) (in ethanol, 298.15 K): 0.00238; solubility (mole fraction) (in ethanol, 303.15 K): 0.00252; solubility (mole fraction) (in ethanol, 308.15 K): 0.00279; solubility (mole fraction) (in ethanol, 313.15 K): 0.00318; solubility (mole fraction) (in ethanol, 318.15 K): 0.00339; solubility (mole fraction) (in ethanol, 323.15 K): 0.00366; solubility (mole fraction) (in ethanol, 328.15 K): 0.00395; solubility (mole fraction) (in ethanol, 333.15 K): 0.00458; solubility (mole fraction) (in ethyl acetate, 293.15 K): 0.0036; solubility (mole fraction) (in ethyl acetate, 298.15 K): 0.00396; solubility (mole fraction) (in ethyl acetate, 303.15 K): 0.00442; solubility (mole fraction) (in ethyl acetate, 308.15 K): 0.00449; solubility (mole fraction) (in ethyl acetate, 313.15 K): 0.00497; solubility (mole fraction) (in ethyl acetate, 318.15 K): 0.00525; solubility (mole fraction) (in ethyl acetate, 323.15 K): 0.00572; solubility (mole fraction) (in ethyl acetate, 328.15 K): 0.00599; solubility (mole fraction) (in ethyl acetate, 333.15 K): 0.00662; solubility (mole fraction) (in isopropanol, 293.15 K): 0.00185; solubility (mole fraction) (in isopropanol, 298.15 K): 0.00196; solubility (mole fraction) (in isopropanol, 303.15 K): 0.00209; solubility (mole fraction) (in isopropanol, 308.15 K): 0.00236; solubility (mole fraction) (in isopropanol, 313.15 K): 0.00268; solubility (mole fraction) (in isopropanol, 318.15 K): 0.00284; solubility (mole fraction) (in isopropanol, 323.15 K): 0.00315; solubility (mole fraction) (in isopropanol, 328.15 K): 0.00318; solubility (mole fraction) (in isopropanol, 333.15 K): 0.00326; solubility (mole fraction) (in methanol, 293.15 K): 0.00147; solubility (mole fraction) (in methanol, 298.15 K): 0.00152; solubility (mole fraction) (in methanol, 303.15 K): 0.00156; solubility (mole fraction) (in methanol, 308.15 K): 0.00163; solubility (mole fraction) (in methanol, 313.15 K): 0.00169; solubility (mole fraction) (in methanol, 318.15 K): 0.00176; solubility (mole fraction) (in methanol, 323.15 K): 0.00182; solubility (mole fraction) (in methanol, 328.15 K): 0.00195; solubility (mole fraction) (in methanol, 333.15 K): 0.00199; solubility (mole fraction) (in methyl acetate, 293.15 K): 0.00397; solubility (mole fraction) (in methyl acetate, 298.15 K): 0.00408; solubility (mole fraction) (in methyl acetate, 303.15 K): 0.00464; solubility (mole fraction) (in methyl acetate, 308.15 K): 0.00499; solubility (mole fraction) (in methyl acetate, 313.15 K): 0.00521; solubility (mole fraction) (in methyl acetate, 318.15 K): 0.00564; solubility (mole fraction) (in methyl acetate, 323.15 K): 0.00597; solubility (mole fraction) (in methyl acetate, 328.15 K): 0.00624; solubility (mole fraction) (in methyl acetate, 333.15 K): 0.00778; solubility (mole fraction) (in n-butanol, 293.15 K): 0.00263; solubility (mole fraction) (in n-butanol, 298.15 K): 0.00296; solubility (mole fraction) (in n-butanol, 303.15 K): 0.00318; solubility (mole fraction) (in n-butanol, 308.15 K): 0.00346; solubility (mole fraction) (in n-butanol, 313.15 K): 0.00385; solubility (mole fraction) (in n-butanol, 318.15 K): 0.00409; solubility (mole fraction) (in n-butanol, 323.15 K): 0.00463; solubility (mole fraction) (in n-butanol, 328.15 K): 0.00499; solubility (mole fraction) (in n-butanol, 333.15 K): 0.00537; solubility (mole fraction) (in n-butyl acetate, 293.15 K): 0.00502; solubility (mole fraction) (in n-butyl acetate, 298.15 K): 0.00513; solubility (mole fraction) (in n-butyl acetate, 303.15 K): 0.00582; solubility (mole fraction) (in n-butyl acetate, 308.15 K): 0.00641; solubility (mole fraction) (in n-butyl acetate, 313.15 K): 0.00681; solubility (mole fraction) (in n-butyl acetate, 318.15 K): 0.00741; solubility (mole fraction) (in n-butyl acetate, 323.15 K): 0.00839; solubility (mole fraction) (in n-butyl acetate, 328.15 K): 0.00894; solubility (mole fraction) (in n-butyl acetate, 333.15 K): 0.00986; solubility (mole fraction) (in n-propanol, 293.15 K): 0.00188; solubility (mole fraction) (in n-propanol, 298.15 K): 0.00197; solubility (mole fraction) (in n-propanol, 303.15 K): 0.00225; solubility (mole fraction) (in n-propanol, 308.15 K): 0.00258; solubility (mole fraction) (in n-propanol, 313.15 K): 0.00276; solubility (mole fraction) (in n-propanol, 318.15 K): 0.00299; solubility (mole fraction) (in n-propanol, 323.15 K): 0.00316; solubility (mole fraction) (in n-propanol, 328.15 K): 0.00349; solubility (mole fraction) (in n-propanol, 333.15 K): 0.00395
